Measurements taken from article PMC4290489, “Identification of multiple salicylic acid-binding proteins using two high throughput screens” (Frontiers in Plant Science, 2015).

What was measured:
Assay type in all cases: binding
[1] = molecular target: T1, RBCS1A (Arabidopsis thaliana, UniProt P10795); assay: SPR competition on 3AESA chip; competition of 4AzSA photo-crosslinking; conditions: 1-5 mM SA, HBS-EP pH 7.4 (SPR); competes with 3AESA and 4AzSA
T1 construct: gene RBCS-1A; small subunit alone, N-terminal His6 (pET28a), from E. coli

[2] = molecular target: T2, SHM4 (Arabidopsis thaliana, UniProt O23254); assay: as above; conditions: 1-5 mM SA, HBS-EP pH 7.4 (SPR); competes with 3AESA and 4AzSA
T2 construct: N-terminal His6 (pET28a), from E. coli
T2 sequence (O23254 1-471): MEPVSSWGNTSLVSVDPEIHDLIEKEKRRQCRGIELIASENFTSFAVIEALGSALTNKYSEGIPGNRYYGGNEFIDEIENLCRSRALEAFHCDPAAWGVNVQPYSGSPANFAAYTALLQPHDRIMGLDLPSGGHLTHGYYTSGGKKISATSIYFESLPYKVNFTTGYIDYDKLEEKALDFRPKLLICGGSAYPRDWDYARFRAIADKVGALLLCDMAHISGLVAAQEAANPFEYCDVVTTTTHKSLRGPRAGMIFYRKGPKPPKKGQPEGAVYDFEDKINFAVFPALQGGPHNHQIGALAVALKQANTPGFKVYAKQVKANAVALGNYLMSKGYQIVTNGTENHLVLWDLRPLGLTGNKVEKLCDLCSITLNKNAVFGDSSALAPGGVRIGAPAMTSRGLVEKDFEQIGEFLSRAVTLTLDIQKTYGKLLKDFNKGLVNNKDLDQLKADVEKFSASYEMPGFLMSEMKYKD

[3] = molecular target: T2, SHM4; assay: UV photo-crosslinking, anti-SA immunoblot; conditions: 50 uM 4AzSA, PBS, on ice, 254 nm UV; covalent; competed by SA
[4] = molecular target: T3, TPPII (Arabidopsis thaliana, UniProt F4JVN6); assay: UV photo-crosslinking, anti-SA immunoblot; conditions: 50 uM 4AzSA, PBS, on ice, 254 nm UV; covalent; competed by SA
T3 construct: gene TPP2; N-terminal His6 (pET28a), from E. coli
T3 sequence (F4JVN6 1-1380): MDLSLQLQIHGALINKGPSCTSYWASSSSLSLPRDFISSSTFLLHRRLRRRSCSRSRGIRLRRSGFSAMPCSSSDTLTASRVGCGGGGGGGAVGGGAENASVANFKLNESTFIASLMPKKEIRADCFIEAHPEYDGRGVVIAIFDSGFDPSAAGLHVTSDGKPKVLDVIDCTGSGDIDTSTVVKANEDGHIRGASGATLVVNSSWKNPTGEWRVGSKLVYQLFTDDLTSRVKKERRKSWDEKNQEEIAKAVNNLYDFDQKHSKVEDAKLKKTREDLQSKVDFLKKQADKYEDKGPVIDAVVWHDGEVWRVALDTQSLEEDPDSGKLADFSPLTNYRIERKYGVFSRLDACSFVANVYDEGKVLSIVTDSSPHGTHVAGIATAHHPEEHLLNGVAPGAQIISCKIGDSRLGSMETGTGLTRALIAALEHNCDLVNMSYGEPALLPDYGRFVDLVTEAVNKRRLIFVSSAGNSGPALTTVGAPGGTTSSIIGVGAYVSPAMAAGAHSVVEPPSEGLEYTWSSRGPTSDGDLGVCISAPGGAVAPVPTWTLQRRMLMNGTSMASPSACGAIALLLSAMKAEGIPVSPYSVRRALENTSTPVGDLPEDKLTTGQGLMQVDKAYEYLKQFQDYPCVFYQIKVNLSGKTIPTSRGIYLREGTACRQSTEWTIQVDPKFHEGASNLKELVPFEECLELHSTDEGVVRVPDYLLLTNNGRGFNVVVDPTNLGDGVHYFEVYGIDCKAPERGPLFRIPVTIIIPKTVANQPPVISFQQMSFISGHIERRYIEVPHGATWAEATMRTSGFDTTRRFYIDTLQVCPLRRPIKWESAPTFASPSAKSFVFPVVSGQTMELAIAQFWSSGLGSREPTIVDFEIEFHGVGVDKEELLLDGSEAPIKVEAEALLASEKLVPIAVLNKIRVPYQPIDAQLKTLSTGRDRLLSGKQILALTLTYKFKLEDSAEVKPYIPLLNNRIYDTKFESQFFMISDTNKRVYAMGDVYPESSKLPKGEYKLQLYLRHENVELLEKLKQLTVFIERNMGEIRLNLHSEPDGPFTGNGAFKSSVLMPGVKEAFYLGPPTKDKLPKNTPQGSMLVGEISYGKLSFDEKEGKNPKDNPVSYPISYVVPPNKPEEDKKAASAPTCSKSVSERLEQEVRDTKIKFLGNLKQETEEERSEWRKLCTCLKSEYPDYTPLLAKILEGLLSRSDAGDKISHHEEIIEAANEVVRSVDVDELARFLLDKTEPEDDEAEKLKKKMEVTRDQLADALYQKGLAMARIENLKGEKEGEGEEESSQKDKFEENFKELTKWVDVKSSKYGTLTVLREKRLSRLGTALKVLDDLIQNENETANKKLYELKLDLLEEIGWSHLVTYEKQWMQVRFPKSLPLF

[5] = molecular target: T4, HPR2 (Arabidopsis thaliana, UniProt Q9CA90); assay: UV photo-crosslinking, anti-SA immunoblot; conditions: 50 uM 4AzSA, PBS, on ice, 254 nm UV; covalent; competed by SA
T4 construct: N-terminal His6 (pET28a), from E. coli
T4 sequence (Q9CA90 1-313): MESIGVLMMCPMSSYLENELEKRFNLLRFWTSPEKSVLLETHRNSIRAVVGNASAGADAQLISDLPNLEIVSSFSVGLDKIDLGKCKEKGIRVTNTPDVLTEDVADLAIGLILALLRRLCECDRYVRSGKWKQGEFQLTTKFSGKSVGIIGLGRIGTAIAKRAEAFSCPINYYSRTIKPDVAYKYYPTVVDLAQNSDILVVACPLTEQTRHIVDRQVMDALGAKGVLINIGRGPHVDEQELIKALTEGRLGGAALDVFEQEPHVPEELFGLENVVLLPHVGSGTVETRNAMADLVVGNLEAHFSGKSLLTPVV

Row | SMILES | SPR competition on 3AESA chip; competition of 4AzSA photo-crosslinking [1] | SPR competition on 3AESA chip; competition of 4AzSA photo-crosslinking [2] | UV photo-crosslinking, anti-SA immunoblot [3] | UV photo-crosslinking, anti-SA immunoblot [4] | UV photo-crosslinking, anti-SA immunoblot [5]
1 | O=C(O)c1ccccc1O [SA] | bound 3AESA and crosslinked to 4AzSA in an SA-inhibitable manner, indicating that they are SABPs | SA competes with 3AESA and 4AzSA for binding by TRX-m1, TPPII, SHM4, and LOX2 | – | – | –
2 | [N-]=[N+]=Nc1ccc(C(=O)O)c(O)c1 [4AzSA] | – | – | These five proteins also bound and crosslinked to 4AzSA | These five proteins also bound and crosslinked to 4AzSA | bound 3AESA and crosslinked to 4AzSA in an SA-inhibitable manner, indicating that they are SABPs
